Values quoted from earlier work, collected in patent US7348299B2, “Cleansing bar with distributed polymeric network providing enhanced delivery” (Conopco, Inc., priority 2005, dated 2008).

How the values were obtained:
[1] = single component of 1:1 model perfume; no unit in table, K in Atm
[2] = single component of 1:1 model perfume; first/second component

Molecule	K (volatility constant) [1]	φo/w (octanol/water partition coefficient) [2]
C=C(C)[C@H]1CC=C(C)CC1 [Limonene]	98	–
OCCc1ccccc1 [Phenylethylalcohol]	0.1	22.9
CCC(C)(CCCC(C)C)OC(C)=O (stereo not shown) [Tetrahydrolinalylacetate]	5.5	31,600
CC=O [acetaldehyde]	0.008	167
CC(CC=O)CCCC(C)(C)O (stereo not shown) [hydroxycitonellal]	0.05	34.7
CC(C=O)Cc1ccc(C(C)(C)C)cc1 (stereo not shown) [lilial]	0.42	32,360
Cc1ccc(C(C)C)cc1 [p-cymene]	265	31,000

More lines, now with the values ahead:

K (volatility constant) [1]	φo/w (octanol/water partition coefficient) [2]	Molecule
0.32	81	CC(=O)OCc1ccccc1 [Benzyl acetate]
280	29648	CC1=CCC2CC1C2(C)C (stereo not drawn) [alpha-pinene]
120	43,651	C=CC(C)CCC=C(C)C (stereo not shown) [citronellene]
6	19,054	CC(=O)OCCC(C)CCC=C(C)C (stereo not shown) [citronellyl acetate]
5.2	–	Methyl ionone
